Laboratory results: the supplement of paper PMC10883282

Columns and labels:
Experiment in all cases: relative viability vs DMSO control (72 h) (fraction); higher = more viable cells
A204 = system: A204
How it was run: (§1)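 Sarcoma cell lines were seeded in 384-well plates at densities set to reach 80–90% confluence. After 24 h, 2.5 µl of serially diluted compound was added (source plates 10 mM to 0.0002 mM), and plates were held 72 h at 37 °C, 5% CO2, with 0.1% DMSO vehicle and a 5 µM positive control. Relative viability came from ATPLite readings as percent growth, averaged over up to triplicate wells. Data were rescaled so full viability equals 1 and none equals 0.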

G401 = system: G401
How it was run: as §1

HS729 = system: HS729
How it was run: as §1

KHOS-240S = system: KHOS-240S
How it was run: as §1

MES-SA = system: MES-SA
How it was run: as §1

SK-ES-1 = system: SK-ES-1
How it was run: as §1

SK-LMS-1 = system: SK-LMS-1
How it was run: as §1

SW1353 = system: SW1353
How it was run: as §1

SW684 = system: SW684
How it was run: as §1

SW872 = system: SW872
How it was run: as §1

SW982 = system: SW982
How it was run: as §1

SYO-1 = system: SYO-1
How it was run: as §1

O=S(=O)(c1cccc2c(O)nccc12)N1CCCNCC1 [Hydroxyfasudil]
Settings | relative viability
A204, 0.00017 µM | 1.08
A204, 0.00051 µM | 1.1
A204, 0.00152 µM | 1.12
A204, 0.00457 µM | 1.1
A204, 0.01372 µM | 1.11
A204, 0.04115 µM | 1.11
A204, 0.1235 µM | 1.11
A204, 0.3704 µM | 1.06
A204, 1.111 µM | 1.04
A204, 3.333 µM | 1.05
A204, 10 µM | 0.979
G401, 0.00017 µM | 1.02
G401, 0.00051 µM | 1.05
G401, 0.00152 µM | 1.03
G401, 0.00457 µM | 1.05
G401, 0.01372 µM | 1.052
G401, 0.04115 µM | 1.05
G401, 0.1235 µM | 1.03
G401, 0.3704 µM | 1.03
G401, 1.111 µM | 1.038
G401, 3.333 µM | 1.01
G401, 10 µM | 0.944
HS729, 0.00017 µM | 1.087
HS729, 0.00051 µM | 0.998
HS729, 0.00152 µM | 1.05
HS729, 0.00457 µM | 1.004
HS729, 0.01372 µM | 0.967
HS729, 0.04115 µM | 0.969
HS729, 0.1235 µM | 0.97
HS729, 0.3704 µM | 0.962
HS729, 1.111 µM | 0.95
HS729, 3.333 µM | 0.887
HS729, 10 µM | 0.853
KHOS-240S, 0.00017 µM | 1.1
KHOS-240S, 0.00051 µM | 1.1
KHOS-240S, 0.00152 µM | 1.1
KHOS-240S, 0.00457 µM | 1.11
KHOS-240S, 0.01372 µM | 1.1
KHOS-240S, 0.04115 µM | 1.1
KHOS-240S, 0.1235 µM | 1.11
KHOS-240S, 0.3704 µM | 1.1
KHOS-240S, 1.111 µM | 1.04
KHOS-240S, 3.333 µM | 0.998
KHOS-240S, 10 µM | 0.906
MES-SA, 0.00017 µM | 0.981
MES-SA, 0.00051 µM | 0.973
MES-SA, 0.00152 µM | 0.93
MES-SA, 0.00457 µM | 0.962
MES-SA, 0.01372 µM | 0.944
MES-SA, 0.04115 µM | 0.92
MES-SA, 0.1235 µM | 0.96
MES-SA, 0.3704 µM | 0.942
MES-SA, 1.111 µM | 0.934
MES-SA, 3.333 µM | 0.879
MES-SA, 10 µM | 0.819
SK-ES-1, 0.00017 µM | 1.09
SK-ES-1, 0.00051 µM | 1.09
SK-ES-1, 0.00152 µM | 1.06
SK-ES-1, 0.00457 µM | 1.05
SK-ES-1, 0.01372 µM | 1.07
SK-ES-1, 0.04115 µM | 1.1
SK-ES-1, 0.1235 µM | 1.06
SK-ES-1, 0.3704 µM | 1.08
SK-ES-1, 1.111 µM | 1.07
SK-ES-1, 3.333 µM | 1.04
SK-ES-1, 10 µM | 1.02
SK-LMS-1, 0.00017 µM | 1.01
SK-LMS-1, 0.00051 µM | 1.06
SK-LMS-1, 0.00152 µM | 1.01
SK-LMS-1, 0.00457 µM | 1.06
SK-LMS-1, 0.01372 µM | 1.04
SK-LMS-1, 0.04115 µM | 1.06
SK-LMS-1, 0.1235 µM | 0.983
SK-LMS-1, 0.3704 µM | 0.99
SK-LMS-1, 1.111 µM | 0.99
SK-LMS-1, 3.333 µM | 0.987
SK-LMS-1, 10 µM | 0.869
SW684, 0.00017 µM | 1.16
SW684, 0.00051 µM | 1.21
SW684, 0.00152 µM | 1.2
SW684, 0.00457 µM | 1.16
SW684, 0.01372 µM | 1.16
SW684, 0.04115 µM | 1.15
SW684, 0.1235 µM | 1.14
SW684, 0.3704 µM | 1.15
SW684, 1.111 µM | 1.12
SW684, 3.333 µM | 1.06
SW684, 10 µM | 1.02
SW872, 0.00017 µM | 1.12
SW872, 0.00051 µM | 1.11
SW872, 0.00152 µM | 1.09
SW872, 0.00457 µM | 1.1
SW872, 0.01372 µM | 1.07
SW872, 0.04115 µM | 1.11
SW872, 0.1235 µM | 1.07
SW872, 0.3704 µM | 1.07
SW872, 1.111 µM | 1.08
SW872, 3.333 µM | 1.03
SW872, 10 µM | 0.964
SW982, 0.00017 µM | 1.02
SW982, 0.00051 µM | 1.05
SW982, 0.00152 µM | 1.05
SW982, 0.00457 µM | 1.081
SW982, 0.01372 µM | 1.05
SW982, 0.04115 µM | 1.06
SW982, 0.1235 µM | 1.073
SW982, 0.3704 µM | 1.06
SW982, 1.111 µM | 1.04
SW982, 3.333 µM | 1.041
SW982, 10 µM | 0.92
SW1353, 0.00017 µM | 1.06
SW1353, 0.00051 µM | 1.07
SW1353, 0.00152 µM | 1.05
SW1353, 0.00457 µM | 1.07
SW1353, 0.01372 µM | 1.01
SW1353, 0.04115 µM | 1.01
SW1353, 0.1235 µM | 1.038
SW1353, 0.3704 µM | 1.036
SW1353, 1.111 µM | 0.96
SW1353, 3.333 µM | 0.913
SW1353, 10 µM | 0.775
SYO-1, 0.00017 µM | 1
SYO-1, 0.00051 µM | 0.996
SYO-1, 0.00152 µM | 0.97
SYO-1, 0.00457 µM | 0.993
SYO-1, 0.01372 µM | 0.96
SYO-1, 0.04115 µM | 0.96
SYO-1, 0.1235 µM | 0.983
SYO-1, 0.3704 µM | 0.894
SYO-1, 1.111 µM | 0.919
SYO-1, 3.333 µM | 0.904
SYO-1, 10 µM | 0.846
